In data set [1] the test system is Ehrlich ascites cells. In words: Ehrlich Ascites tumor screen for antineoplastic activity. The data set is classed as in vivo. Particulars: 20 mg/kg/day intraperitoneally, days 1-9; CF male mice; day 10. How it is done: Use of compounds according to this invention in Ehrlich Ascites tumor screens for antineoplastic activity has been investigated.
CF male mice (~25 g) were inoculated intraperitoneally on day 0 with 2×10^6 Ehrlich ascites cells. Compositions containing compounds of this invention were prepared in 0.05% polysorbate 80 by homogenation and injected intraperitoneally on days 1-9 at 20 mg/kg/day. On day 10, the mice were sacrificed and the cells from the peritoneal cavity harvested. The total ascites tumor and packed cell (ascrit) volumes were determined and used to calculate the percent inhibition according to the procedure described in C. Piantadosi et al., J. Pharm. Sci., 58, p. 821 (1969). […] Mercaptopurine and mephalan were used as positive controls in the screen. Other pharmaceutically acceptable carriers, diluents, adjuvants or dosages are readily ascertainable by the skilled artisan.

The nature of data set [2]: Thermal stability / vacuum distillation. The data set is classed as physicochemical. As to conditions: for thermal stability: higher temperature (>100° C.); for decomposition when subjected to vacuum distillation: oil-bath temperatures >100° C. How it is done: The parent compound 1, trimethylamine-(ethylcarbamoyl)borane was prepared as previously described in B. F. Spielvogel et al., J. Am. Chem. Soc., 98 p. 5702 (1976) and I. H. Hall et al., J. Pharm. Sci., 68, p. 685 (1979) by refluxing (under dry N2) a solution of Me3 N.BH2 CN in CH2 Cl2 with 2 equivalents of triethyloxonium tetrafluoroborate for 24 hours. The compounds Me3 N.BH2 CN and triethyloxonium tetrafluoroborate are referred to in P. Wisian-Neilson et al., Inorg. Chem. 17, p. 2327 (1978) and H. Meerwein, Org. Synth., 46, p. 113 (1966), respectively. The resulting ethylnitrilium salt (not isolated) was hydrolyzed at 0° C. with 1N NaOH until basic and finally purified by vacuum distillation, giving a 75% yield. Dimethylamine-(ethylcarbamoyl)borane was made from 1 by a (CH3)2NH-exchange reaction in a pressure-glass vessel at room temperature for 8 days, and ca. 80% conversion (by ^1 H NMR) was obtained. Longer reaction periods (2-3 weeks) gave similar results. Amide 2 is readily purified by washing a CH2 Cl2 solution of the crude mixture with a small quantity of water whereby 1 is removed. The bulk CH2 Cl2 solution containing the product was dried, and rotary evaporation of the solvent gave 78% yield. Finally, the product was distilled under reduced pressure to get an analytical sample. […] The methylamine-(ethylcarbamoyl)borane and ammonia-(ethylcarbamoyl)borane were similarly prepared from 1 by exchange reactions with CH3 NH2 and NH3, respectively, in a glass pressure reaction vessel at room temperature for 1 week. The crude amide was purified by recrystallization from CH2 Cl2 /pentane, giving a 65% yield, whereas the ammonia analogue was recrystallized from distilled water, giving a 60% yield.

Data set [3] in a line: Toxicity in BALB/C mice. In kind it is in vivo.
The nature of data set [4]: Tissue distribution study of boron (boron neutron capture therapy). In kind it is in vivo, BALB/c mice. Particulars: mouse, ip, 40 mg/kg, single saline i.p. injection, 40 μg boron per gram body weight; for concentration at 1 h: 1 hr post injection. On the procedure: (§1) In a tissue distribution study relating to treatment of tumor tissue in an animal by boron neutron capture therapy, a representative compound of this invention MeNH2.BH2 C(O)NHEt was administered in a single saline intraperitoneal injection sufficient to provide 40 μg boron per gram body weight to BALB/c mice carrying Harding-Passey melanorna.

The test system of data set [5] is Harding-Passey melanorna. Described as above. As to conditions: for Boron uptake, blood / Boron uptake, brain / Boron uptake, tumor: single saline i.p. injection, 40 μg boron per gram body weight. The data set is classed as in vivo, BALB/c mice. How it is done:
as §1

Data set [6] in a line: Solubility.
Data set [7] relates to tumor. As to conditions: in mice; cited from earlier work.
For data set [8] the following is noted: in mice; cited from earlier work.
For data set [9] the following is noted: animal model studies; cited from earlier work.
For data set [10] the following is noted: animal model studies; cited from earlier work. This is another data set of the same source.
Where [11] appears, read: 1 hr post injection, 40 mg/kg, 60 min.

Where two headings read alike, the source gives them in different places.

As to `CCNC(=O)[BH2-][NH+](C)C` [Me2 NH.BH2 C(O)NHEt, Dimethylamine-(Ethylcarbamoyl)borane], the “percent inhibition (ascites tumor and packed cell volumes)” value in data set [1] worked out at 72.2%. Moreover, in data set [2], the thermal stability entry is “thermally unstable” and the “decomposition when subjected to vacuum distillation” value is reported as “considerable decomposition”.

`CCNC(=O)[BH2-][NH2+]C` [MeNH2.BH2 C(O)NHEt, Methylamine-(ethylcarbamoyl)borane]: the toxicity result in data set [3] was “not toxic”. In addition, the concentration at 1 h is 54800 ng/g in data set [4] (blood, read-out: Boron uptake, blood); 45300 ng/g in data set [4] (brain, read-out: Boron uptake, brain); 51300 ng/g in data set [4] (tumor, read-out: Boron uptake, tumor). Further, in data set [4] (tumor, 12 hr post injection, read-out: Boron uptake, tumor), the concentration at 12 h amounted to 3800 ng/g. Besides, the “Boron uptake, blood” value in data set [5] (setting [11]) is 54.4 μg B per gram tissue; in data set [5] (12 hr post injection) it was 0 μg B per gram tissue. In addition, the “Boron uptake, brain” value in [5] (setting [11]) is 39.8 μg B per gram tissue; in data set [5] (12 hr post injection) it was 0 μg B per gram tissue. Besides, the “Boron uptake, tumor” value in data set [5] (setting [11]) is reported as 48.7 μg B per gram tissue; in data set [5] (12 hr post injection, 40 mg/kg, 720 min), 2.8 μg B per gram tissue. The “uptake for conventional therapy, measured against the standard in clinical use Na2 B12 H11 SH” value in data set [5] (in words) is reported as “inadequate”. The “concentration of the boron-containing compound in the tumor tissue” value in data set [5] (in words, BALB/c mice) is recorded as “some preferential differential concentration”. Besides, the solubility result in [6] is “good”. In data set [1], the “percent inhibition (ascites tumor and packed cell volumes)” value was found to be 91%.

Turning to `C[N+](C)(C)[BH2-]C(=O)O` [Me3 N.BH2 COOH], the antitumor activity entry in data set [7] is given as “significant”. The antihyperlipidemic activity entry in data set [8] was “significant”.

Regarding `CCNC(=O)[BH2-][N+](C)(C)C` [Trimethylamine-(ethylcarbamoyl)borane, Trimethylamine-(Ethylcarbamoyl)borane], the antiarthritic activity entry in data set [9] is recorded as “significant”. The antiinflammatory activity result in [10] is “significant”. In addition, in [2], the thermal stability result is “thermally unstable” and the “decomposition when subjected to vacuum distillation” value was “considerable decomposition”. In data set [7], the antitumor activity entry was “significant”. For the same compound, in data set [8], the antihyperlipidemic activity entry is on record as “significant”.

(Values after US4587359A, “Amine-carbamoylborane adducts” (The United States of America as represented by the Secrtary …, priority 1984, dated 1986).)
